Tests used:
soil bacterial community = experiment: Plant associated soil microbiome: bacterial community by 16S rRNA gene amplicon sequencing; type: in vivo, tomato plants
Description: To detect microbial community modifications in the soil microbiome associated with the cyclobutrifluram treatment against root knot nematodes, PCR amplification and successive high-throughput sequencing of bacterial and fungal taxonomical marker genes (the small-subunit ribosomal RNA gene (16S) and the ribosomal internal transcribed spacers (ITS) respectively) were performed on plant-associated soil samples.
Bacterial ASVs were detected by 16SrRNA gene amplicon sequencing with taxonomy assignment at ASV level. The relative abundance in Control and Cyclobutrifluram treated samples and, when statistically significative (Deseq2, p=0.1), the relative abundance variation is reported in Table 1a, reporting bacterial ASVs detected by 16S rRNA gene amplicon sequencing with taxonomy assignment at ASV level. Here is reported the relative abundance in Control and Cyclobutrifluram treated samples and, when statistically significative (Deseq2, p=0.1), the relative abundance variation. Shown are the bacteria with an abundance of above 0.01%.

[1] = test system: bacteria (16S) and fungi (ITS) communities; experiment: Potato field trial: soil microbiome community and biodiversity; type: in vivo, potato (Solanum tuberculosum L.); settings: locations A and B, T0-T3
Description: In this experiment, assuming that biodiversity can be measured by the taxonomic richness and abundance of each taxon, the differences between treatments are determined and their effect on populations and beneficial species over time is verified. This leads to testing two hypotheses. Firstly, there is an impact of cyclobutrifluram applications on microbial diversity. Secondly, the use of cyclobutrifluram improves beneficial microbial diversity over time. These hypotheses were tested in two potato farms in the USA.
The experiment was carried out in two potato (Solanum tuberculosum L.) fields located in two test locations in Louisiana, USA, described as locations A and B in Table 2. In each experimental field, three products were tested in an area of 10 m^2 (Table 3) and three replicates per product were established by complete block randomized. To evaluate the effects on the microbiome a “Check” plot (untreated) was established. In addition, fluopyram was employed as a comparative example. Fluopyram is a widely used fungicide and nematicide, and represents the industry standard herein.
To analyse the microbial biodiversity, three soil samples were taken per treatment and each sample consisted of soil collected from three different points within the plots. In this way, the effect of soil variability was minimized, since there were nine samples per treatment. […]
As set out above, to detect microbial community modifications in the soil microbiome associated with the cyclobutrifluram treatment, PCR amplification and successive high-throughput sequencing of bacterial and fungal taxonomical marker genes (the small-subunit ribosomal RNA gene (16S) and the ribosomal internal transcribed spacers (ITS) respectively) were performed on plant-associated soil samples. An exploratory data analysis was conducted to describe the microbial biodiversity and the behaviour of the percentage of the abundance of species under the evaluated factors. […]

[2] = test system: arbuscular mycorrhizae fungi; experiment: Mycorrhization in soybean roots after seed treatment; type: in vivo
Description: Soybeans of variety Toliman were treated with 0.15 mg ai/seed of cyclobutrifluram and analogues, and planted in 1.5 L pots of 0-3 mm sieved soil. The seeds were inoculated with Bradyrhizobium japonicum using a commercially available product for soybeans.
In a first series, for each active ingredient tested, 15 replicate pots were sowed. In each pot, 3 seeds were sowed. After germination, 2 seedling was removed from each pot to a final number of 1 plant per pot. Each pot was inoculated with a small amount of a mycorrhizal inoculant (Blend A, commercially available from Symbiom, Czech Republic). The plants were grown in a greenhouse for 81 days under the following conditions: Humidity at 45-64%, Temperature of 22° C. to 24° C., in a 16/8 hour day/night cycle. In a further test series, Soybeans seeds treated as outlined above were then planted in 1 Lpots of 0-3 mm sieved soil. For each active ingredient, 8 replicate pots were sowed, whereby in each pot, 3 seeds were sowed. After germination, 2 seedlings were removed from each pot to a final number of 1 plant per pot.
The plants were then grown in a growth chamber for 42 days with the following conditions: Temperature of 20° C. and with a 12/12 hour day/night.
After harvest, the percent mycorrhization was quantified using the methods of McGonigle et al. (T. P. McGONIGLE, M. H. MILLER and D. G. EVANS et al., “A new method which gives an objective measure of colonization of roots by vesicular-arbuscular mycorrhizal fungi”. New Phytol. Vol. 115 (3): 495-501.).

[3] = Cyclobutrifluram treated plant-associated soil

`O=C(N[C@@H]1CC[C@@H]1c1ccc(Cl)cc1Cl)c1cccnc1C(F)(F)F` (racemic) [Cyclobutrifluram, cyclobutrifluram] was tested, and the “relative abundance variation vs Control, Acidobacteria-6 (ASV, Class)” value (soil bacterial community; 1st Acidobacteria-6 ASV (r9), Deseq2, p=0.1) was “+0.050%”, the “relative abundance variation vs Control, Acidobacteria-6 (ASV, Class)” value (soil bacterial community; 2nd Acidobacteria-6 ASV (r16), Deseq2, p=0.1) was “+0.051%” and the “relative abundance variation vs Control, Acidobacteria-6 (ASV, Class)” value (soil bacterial community; 3rd Acidobacteria-6 ASV (r18), Deseq2, p=0.1) was “+0.027%”. For the same compound, the “relative abundance variation vs Control, Acidobacteria-6 (ASV, Class)” value (soil bacterial community; 4th Acidobacteria-6 ASV (r19), Deseq2, p=0.1) was “+0.028%”, the “relative abundance variation vs Control, Acidobacteria-6 (ASV, Class)” value (soil bacterial community; 5th Acidobacteria-6 ASV (r22), Deseq2, p=0.1) was “+0.071%” and the “relative abundance variation vs Control, Acidobacteria-6 (ASV, Class)” value (soil bacterial community; 6th Acidobacteria-6 ASV (r24), Deseq2, p=0.1) was “+0.030%”. For the same compound, the “modifications in the bacterial diversity” value (soil bacterial community; 16S rRNA gene amplicon sequencing) was “no modifications”, the “Relative abundance, Gaiella (ASV, Genus)” value (soil bacterial community; [3]) was 0.065% and the “Relative abundance, Gemmatimonadetes (ASV, Class)” value (soil bacterial community; [3]) was 0.071%. For the same compound, the “Relative abundance, Microlunatus (ASV, Genus)” value (soil bacterial community; [3]) was 0.032%, the “Relative abundance, Myxococcales (ASV, Order)” value (soil bacterial community; [3]) was 0.033% and the “Relative abundance, PK29 (ASV, Order)” value (soil bacterial community; [3]) was 0.021%. For the same compound, the “Relative abundance, Planctomyces (ASV, Genus)” value (soil bacterial community; [3]) was 0.016%, the “Relative abundance, Rhizobiales (ASV, Order)” value (soil bacterial community; [3]) was 0.025% and the “Relative abundance, Streptosporangiaceae (ASV, Family)” value (soil bacterial community; [3]) was 0.020%. The “Relative abundance, Acidobacteria-6 (ASV, Class)” value (soil bacterial community; Cyclobutrifluram treated plant-associated soil, 1st Acidobacteria-6 ASV (r9)) was 0.050%, the “Relative abundance, Acidobacteria-6 (ASV, Class)” value (soil bacterial community; Cyclobutrifluram treated plant-associated soil, 2nd Acidobacteria-6 ASV (r16)) was 0.051% and the “Relative abundance, Acidobacteria-6 (ASV, Class)” value (soil bacterial community; Cyclobutrifluram treated plant-associated soil, 3rd Acidobacteria-6 ASV (r18)) was 0.027%. For the same compound, the “Relative abundance, Acidobacteria-6 (ASV, Class)” value (soil bacterial community; Cyclobutrifluram treated plant-associated soil, 4th Acidobacteria-6 ASV (r19)) was 0.028%, the “Relative abundance, Acidobacteria-6 (ASV, Class)” value (soil bacterial community; Cyclobutrifluram treated plant-associated soil, 5th Acidobacteria-6 ASV (r22)) was 0.084% and the “Relative abundance, Acidobacteria-6 (ASV, Class)” value (soil bacterial community; Cyclobutrifluram treated plant-associated soil, 6th Acidobacteria-6 ASV (r24)) was 0.030%. For the same compound, the “relative abundance variation vs Control, Gaiella (ASV, Genus)” value (soil bacterial community; Deseq2, p=0.1) was “+0.065%”, the “relative abundance variation vs Control, Gemmatimonadetes (ASV, Class)” value (soil bacterial community; Deseq2, p=0.1) was “+0.071%” and the “relative abundance variation vs Control, Microlunatus (ASV, Genus)” value (soil bacterial community; Deseq2, p=0.1) was “+0.032%”. For the same compound, the “relative abundance variation vs Control, Myxococcales (ASV, Order)” value (soil bacterial community; Deseq2, p=0.1) was “+0.033%”, the “relative abundance variation vs Control, PK29 (ASV, Order)” value (soil bacterial community; Deseq2, p=0.1) was “+0.021%” and the “relative abundance variation vs Control, Planctomyces (ASV, Genus)” value (soil bacterial community; Deseq2, p=0.1) was “+0.016%”. The “relative abundance variation vs Control, Rhizobiales (ASV, Order)” value (soil bacterial community; Deseq2, p=0.1) was “+0.025%”, the “relative abundance variation vs Control, Streptosporangiaceae (ASV, Family)” value (soil bacterial community; Deseq2, p=0.1) was “+0.020%” and the “modifications in the bacterial community at genus level” value (soil bacterial community; differential abundance analysis, Cyclobutrifluram treatment) was “no significant modifications”. The “relative abundance of the 14 ASVs found to be significantly changing” value (soil bacterial community; following cyclobutrifluram treatment) was under 0.1%, the “changes into the soil microbiome community” value [1] was “did not induce negative changes” and the response vs control in vivo at 0.15 mg/seed ([2]; Glycine max, soybean variety Toliman, seed treatment 0.15 mg ai/seed, mycorrhizal inoculant Blend A, relative to control, read-out: [%] arbuscular mycorrhizae fungi colonization vs. control.) was 115%. For the same compound, the “level of mycorrhizal colonization in soybean roots (in words)” value ([2]; compared to control) was “higher colonization”.
